Results from patent US4333952A, “Growth promotors for ruminants” (Beecham Group Limited, priority 1979, dated 1982).
Read-outs that look alike come from different tables or passages of the source.

Tests used:
rumen fluid = experiment: in vitro incubation of buffered rumen fluid (methane inhibition, propionate enhancement, headspace gases and volatile fatty acids); type: cell-based, sheep; details: for inhibition at 5 ppm / activation at 5 ppm / inhibition at 2 ppm / inhibition at 3 ppm / activation at 2 ppm / activation at 3 ppm / inhibition at 10 ppm / activation at 10 ppm: Ovis aries
Method: The compounds were tested for their ability to reduce or inhibit methane production and to enhance propionate formation. The method used is as follows:
The screening system is in vitro incubation of buffered rumen fluid with, or without, the addition of the test compound.
Rumen fluid is removed by suction from two rumenfistulated sheep, just before feeding. The fluid is strained and mixed. The incubation is for twenty hours in a shaking water-bath at 39° C. Each incubation flask contains: 30 ml McDougall's bicarbonate buffer, pH 6.7-6.9, 10 ml strained rumen fluid, 200 mg substrate (the substrate is a ground sample of the diet on which the sheep has been fed) and 1 ml 10% aqueous ethanol containing 0.2% Tween 80 and the compound under examination. Samples are taken at the end of the incubation period for analysis of headspace gases and volatile fatty acids, by g.l.c.
The compounds were tested at 10 ppm/flask, except for the compounds of Examples 9 and 10 which were tested at 5 ppm/flask.
Selected compounds were also tested according to the above protocol at doses of 2 and 3 ppm, the results being given in Table 2 below.
The compound of Example 1 was further tested in an in vitro a dose response study, according to the protocol above, at the doses shown in Table 3 below.

methanogenesis = experiment: in vivo gas collection screen in sheep (respirometer, methanogenesis and hydrogen evolution); details: 5 week period
Method: In vivo studies in a "gas collection screen":
Groups of 4, 50 kg sheep were fed diets containing one of the compounds of formula (I) over a 5 week period. A different sheep from each group was put into a respirometer for 24 hours each day. Each sheep was thus monitored once in every […], gas flow was maintained by a peristaltic pump and measured using a commercial gas meter and a sub-sample collected in a butyl-rubber inner tube.

[1] = 5 ppm/flask (Examples 9 and 10), 20 h, 39° C.
[2] = 20 h, read-out: VFA production % difference from control, Acetate
[3] = 20 h, read-out: VFA production % difference from control, Butyrate
[4] = 20 h, read-out: VFA production % difference from control, Propionate
[5] = 20 h, read-out: VFA production % difference from control, TVFA
[6] = 20 h, read-out: VFA production % change from control, Acetate
[7] = 20 h, read-out: VFA production % change from control, Butyrate
[8] = 20 h, read-out: VFA production % change from control, Propionate
[9] = 20 h, read-out: VFA production % change from control, TVFA
[10] = 10 ppm/flask, 20 h, 39° C., read-out: % inhibition of methane
[11] = Table 2, 2 ppm, read-out: % inhibition of methane
[12] = Table 2, 3 ppm, read-out: % inhibition of methane

Row | SMILES | % hydrogen present (rumen fluid; 10 ppm/flask, 20 h, 39° C.) | Molar % VFA Acetate (rumen fluid; 10 ppm/flask, 20 h, 39° C.) | Molar % VFA Butyrate (rumen fluid; 10 ppm/flask, 20 h, 39° C.) | Molar % VFA Propionate (rumen fluid; 10 ppm/flask, 20 h, 39° C.) | TVFA (rumen fluid; 10 ppm/flask, 20 h, 39° C.) | inhibition at 2 ppm (rumen fluid; [6]) | inhibition at 3 ppm (rumen fluid; [6]) | activation at 2 ppm (rumen fluid; [7]) | activation at 3 ppm (rumen fluid; [7]) | activation at 2 ppm (rumen fluid; [8]) | activation at 3 ppm (rumen fluid; [8]) | inhibition at 2 ppm (rumen fluid; [9]) | inhibition at 3 ppm (rumen fluid; [9]) | inhibition at 10 ppm (rumen fluid; [2]) | activation at 10 ppm (rumen fluid; [3]) | activation at 10 ppm (rumen fluid; [4]) | inhibition at 10 ppm (rumen fluid; [5]) | inhibition at 10 ppm (rumen fluid; [10]) | inhibition at 2 ppm (rumen fluid; [11]) | % hydrogen in headspace gases (rumen fluid; Table 2, 2 ppm) | also measured
1 | OC(CC(O)C(Cl)(Cl)Cl)c1ccc(Cl)cc1 (stereo not drawn) [Example 9, 1-p-Chlorophenyl-1,3-dihydroxy-4,4,4-trichlorobutane] | – | – | – | – | – | – | – | – | – | – | – | – | – | – | – | – | – | – | – | – | % hydrogen present (rumen fluid; [1]): 0.64%; Molar % VFA Acetate (rumen fluid; [1]): 59.9 Molar %; Molar % VFA Butyrate (rumen fluid; [1]): 10.7 Molar %; Molar % VFA Propionate (rumen fluid; [1]): 26.4 Molar %; TVFA (rumen fluid; [1]): 47.7 μM/ml; inhibition at 5 ppm (rumen fluid; [2]): 38.5%; activation at 5 ppm (rumen fluid; [3]): 59.7%; activation at 5 ppm (rumen fluid; [4]): 53.2%; inhibition at 5 ppm (rumen fluid; [5]): 15.5%; inhibition at 5 ppm (rumen fluid; 5 ppm/flask (Examples 9 and 10), 20 h, 39° C., read-out: % inhibition of methane): 50.7%
2 | COc1cccc(NCC(O)C(Cl)(Cl)Cl)c1 (stereo not drawn) [Example 6, 1,1,1-Trichloro-3-(m-methoxy)anilinopropan-2-ol] | 2.59% | 63.2 Molar % | 8.50 Molar % | 24.9 Molar % | 55.4 μM/ml | 9.3% | 41.8% | 15.3% | 15.2% | 12.6% | 41.7% | 4.5% | 21.5% | 40.4% | -6.6% | 36.8% | 25.3% | 97.5% | 11.5% | 0.03% | inhibition at 3 ppm (rumen fluid; [12]): 77.8%; % hydrogen in headspace gases (rumen fluid; Table 2, 3 ppm): 1.09%
3 | OC(COc1ccccc1Br)C(Cl)(Cl)Cl (stereo not drawn) [Example 3, 1,1,1-Trichloro-3-o-bromophenoxypropan-2-ol] | 2.30% | 59.1 Molar % | 14.2 Molar % | 24.1 Molar % | 57.2 μM/ml | 9.1% | 35.5% | 3.4% | 26.8% | 11.1% | 43.1% | 4.5% | 15.6% | 36.8% | 25% | 54.3% | 16.7% | 97.8% | 17.8% | 0.02% | inhibition at 3 ppm (rumen fluid; [12]): 54.7%; % hydrogen in headspace gases (rumen fluid; Table 2, 3 ppm): 0.66%
4 | OC(CN(CC(O)C(Cl)(Cl)Cl)c1ccccc1)C(Cl)(Cl)Cl (stereo not drawn) [Example 7, N,N-Di (3,3,3-Trichloro-2-hydroxypropyl)aniline] | 2.17% | 61.9 Molar % | 9.72 Molar % | 24.8 Molar % | 56.2 μM/ml | – | – | – | – | – | – | – | – | – | – | – | – | 87.9% | – | – | inhibition at 10 ppm (rumen fluid; 10 ppm/flask, 20 h, 39° C., read-out: VFA production % difference from control, Acetate): 40.8%; activation at 10 ppm (rumen fluid; 10 ppm/flask, 20 h, 39° C., read-out: VFA production % difference from control, Butyrate): 18.9%; activation at 10 ppm (rumen fluid; 10 ppm/flask, 20 h, 39° C., read-out: VFA production % difference from control, Propionate): 39%; inhibition at 10 ppm (rumen fluid; 10 ppm/flask, 20 h, 39° C., read-out: VFA production % difference from control, TVFA): 24.7%
5 | O=C(CC(O)C(Cl)(Cl)Cl)c1ccc(Cl)cc1 (stereo not drawn) [Example 8, 1-p-Chlorophenacyl-2-hydroxy-3-trichloropropane] | 0.05% | 63.5 Molar % | 9.8 Molar % | 23.7 Molar % | 50.5 μM/ml | – | – | – | – | – | – | – | – | 23.1% | 50.7% | 42.4% | 6.5% | 34.1% | – | – | –
6 | OC(CNc1ccccc1)C(Cl)(Cl)Cl (stereo not drawn) [Example 4, 1,1,1-Trichloro-3-anilinopropan-2-ol] | 2.13% | 59.3 Molar % | 13.7 Molar % | 23.9 Molar % | 57.2 μM/ml | 12.8% | – | 3% | – | 27.2% | – | 4% | – | 36.4% | 18.2% | 52.8% | 16.7% | 98.5% | 20.8% | 0.09% | Hydrogen evolution (methanogenesis; sheep, 75 mg/day in feed): 1.8 liters/24 hours; % inhibition of methanogenesis (methanogenesis; sheep, 75 mg/day in feed, * = significantly different from control, p < 0.01): 11.5%
7 | CC[C@@]1([C@@H]2O[C@@H]([C@H]3O[C@@](O)(CO)[C@H](C)C[C@@H]3C)C[C@@H]2C)CC[C@H]([C@]2(C)CC[C@]3(C[C@H](O)[C@@H](C)[C@@H]([C@@H](C)[C@@H](OC)[C@H](C)C(=O)O)O3)O2)O1 [Monensin, reference compound] | – | – | – | – | – | – | – | – | – | – | – | – | – | – | – | – | – | – | – | – | methane inhibition (methanogenesis; 50 mg/sheep/day, same study): 41%
8 | OC(COc1ccc(Cl)cc1)C(Cl)(Cl)Cl (stereo not drawn) [Example 2, 1,1,1-Trichloro-3-p-chlorophenoxypropan-2-ol] | 2.49% | 58.5 Molar % | 14.1 Molar % | 24.1 Molar % | 56.9 μM/ml | 22.6% | 39% | 2% | 10.2% | 25.2% | 28.4% | 11.5% | 22.7% | 38.5% | 22.7% | 53.2% | 17.5% | 98.5% | 33.3% | 0.09% | inhibition at 3 ppm (rumen fluid; [12]): 54.5%; % hydrogen in headspace gases (rumen fluid; Table 2, 3 ppm): 0.8%
9 | CN(CC(O)C(Cl)(Cl)Cl)c1ccccc1 (stereo not drawn) [Example 5, 1,1,1-Trichloro-3-N-methylanilinopropan-2-ol] | 1.9% | 59.1 Molar % | 14.0 Molar % | 24.0 Molar % | 57.5 μM/ml | 4.3% | – | 0.8% | – | 0.8% | – | 3.1% | – | 36.3% | 23.9% | 54.6% | 16.1% | 92.7% | 4.2% | 0.02% | –
10 | CN1CCN(CC(O)C(Cl)(Cl)Cl)CC1 (stereo not drawn) [Compound A, reference compound] | 0.062% | 65.3 Molar % | 9.13 Molar % | 21.9 Molar % | 56.7 μM/ml | – | – | – | – | – | – | – | – | 35% | 9% | 19.9% | 22.6% | 50.6% | – | – | –
